Read-outs that look alike come from different tables or passages of the source.
Key:
[1] = system: B. plicatilis; details: for effect of elevated free ammonia exposure time on 24-hour rotifer survival: pH 9, exposure 0-12 hours; for mean rotifer densities over the eight-day experiment: f/2 and ADE media
Protocol: (§1) Five free ammonia exposure times were chosen (0, 1, 2, 6, and 12 hours) with the goal of identifying which times may lead to an optimal reduction of B. plicatilis populations without negatively affecting N. oculata growth. We also used a rotifer-free control to observe the growth of N. oculata with neither rotifers nor elevated free ammonia exposure relative to experimental treatments. We conducted this experiment in both defined media (f/2) and dairy wastewater (ADE) to observe any differences between media types. For the defined medium trial, we created culture mixtures containing f/2 in ASW, 0.01 M Tris base, N. oculata at approximately 1×10^6 cells mL^−1 and B. plicatilis at approximately 10 rotifers mL^−1. NH4Cl was added to this mixture to initiate the period of free ammonia exposure. Similarly, for the dairy wastewater trial, we created culture mixtures containing ASW, 0.01 M Tris base, N. oculata at approximately 1×10^6 cells mL^−1, and B. plicatilis at approximately 10 rotifers/mL. The initial cell density of N. oculata was meant to represent a high-density culture nearing early stationary phase, which also allowed for increases in cell density. The initial rotifer density was chosen to represent initial stages of a contamination event after exposure of the algal culture to colonizing rotifer pests, at which point contamination is detectable yet treatable. ADE was added to this mixture to initiate the period of free ammonia exposure. For both trials, pH was immediately adjusted to 9 for the 1, 2, 6, and 12 hour treatments and held at this pH for the designated exposure time. The 0 hour and control treatments were adjusted to pH 6.3-6.5 via CO2 addition prior to addition of the ammonium source, thereby eliminating any exposure to elevated free ammonia. […] Thus, all treatments within an experiment received the same amount of CO2 and the same amount of total NH3—N. Flasks were shaken and stirred once daily on a stir plate while pH was being adjusted to desired level. In this experiment, pH was measured and controlled in each treatment using American Marine Pinpoint pH controllers.
(§2) Samples for total NH3—N were collected at the beginning and end of the exposure time for each treatment in order to quantify potential loss of N from the system caused by volatilization of free ammonia. Densities of N. oculata and B. plicatilis were measured at the initial free ammonia exposure time, and every 24 hours thereafter for eight days. Live B. plicatilis were enumerated in triplicate 1 mL counts in a Sedgewick-Rafter counting chamber (Wildco item #EW-05491-64), and growth of N. oculata was tracked by both OD680 measurement and direct cell counts. Final ash free dry weight (AFDW) was measured on day eight for all replicates.
(§3) We chose this range in order to eliminate possible free ammonia inhibition after the designated exposure period while also staying within the pH range for optimal growth of N. oculata.

[2] = system: N. oculata; details: for algal growth rate / final AFDW: co-culture with B. plicatilis; for final AFDW: day eight
Protocol: as §1, §2, §3

[3] = system: B. plicatilis
[4] = system: Chlorella pyrenoidosa; details: Tan et al., 2015; cited from earlier work
[5] = system: Brachionus rotifer; details: cited from earlier work
[6] = system: N. oculata
[7] = system: Nannochloropsis oculata; details: Gutierrez et al., 2016, cited from earlier work
[8] = system: Chlorella sorokiniana; details: Gutierrez et al., 2016; cited from earlier work
[9] = system: Scenedesmus obliquus; details: Abeliovich and Azov, 1976; cited from earlier work

N [free ammonia, ammonia]
prediction formula for 24-hour B. plicatilis survival against exposure time (FIG. 3) ([1]; ADE medium, 52.8 mg L^−1 free ammonia): ln(% survival)=4.768-0.2902*exposure time | effect of elevated free ammonia exposure time on 24-hour rotifer survival ([1]; dairy ADE medium): significantly decreased | effect of elevated free ammonia exposure time on 24-hour rotifer survival ([1]; f/2 medium): significantly decreased | mean rotifer densities over the eight-day experiment ([1]; six-hour exposure time): remained below the initial density | mean rotifer densities over the eight-day experiment ([1]; twelve-hour exposure time): remained below the initial density | rotifer density over the eight-day experiment ([1]; two hours or less of exposure, ADE medium): proliferated, with up to an order of magnitude increase in rotifer density | effects on the alga Nannochloropsis oculata ([2]; 6-12 hours of elevated free ammonia, both media types): no negative effects | algal growth rate ([2]; 6-hour exposure time): 0.70 ± 0.01 day⁻¹ | final AFDW ([2]; 6-hour exposure time): 0.37 ± 0.004 g/L | algal growth rate ([2]; 12-hour exposure time): 0.60 ± 0.06 day⁻¹ | final AFDW ([2]; 12-hour exposure time): 0.38 ± 0.004 g/L | prediction formula for 24-hour rotifer survival against free ammonia concentration (FIG. 1A) ([3]; 5% ADE medium): ln(% survival)=3.606-0.0357*exposure time | relationship between initial free ammonia concentration and B. plicatilis survival after 24 hours ([3]; 5% dairy ADE, free ammonia 0.77-48.9 mg L^−1 (pH 7-9)): significant negative relationship | relationship between initial free ammonia concentration and B. plicatilis survival after 24 hours ([3]; ASW medium with NH4Cl, free ammonia 0.65-41.6 mg L^−1 (pH 7-9)): significant negative relationship | concentration tolerated without inhibition of photosynthesis or growth rate [4]: up to 20 mg/L free NH3—N | concentration that causes complete mortality ([5]; Schlüter and Groeneweg, 1985): over 5 mg/L free NH3—N | concentration that reduces Brachionus rotifer reproduction ([5]; de Araujo et al., 2000): ≥ 2.4 mg/L | effect of free ammonia concentration on final OD680 levels ([6]; ADE cultures): no effect | effect of initial free ammonia on growth rates ([6]; ADE medium): no effect | OD680 levels of N. oculata with increasing free ammonia levels ([6]; f/2 medium): increased | effect of initial free ammonia on growth rates ([6]; f/2 medium): no effect | inhibition of N. oculata ([6]; f/2 or ADE media, any of the free ammonia levels tested, seven days): no observed inhibition | highest level tested, not inhibited [7]: 16 mg free NH3—N | lipid content of N. oculata ([7]; exposure to high free ammonia levels): not significantly altered | highest level tested, not inhibited [8]: 16 mg free NH3—N | concentration tolerated without inhibition of photosynthesis or growth rate [9]: up to 28 mg/L free NH3—N

Source: patent US11219218B2, “Methods of enhancing algae production” (Boise State University, priority 2018, dated 2022)
